Source: patent US5599663A, “Angiotensin IV and analogs as regulators of fibrinolysis” (Brighan & Women's Hospital, priority 1993, dated 1997)

Experiments:
[1] = Mean blood pressure during graded infusions in rabbits; format: in vivo, New Zealand White rabbits; settings: for effect on mean blood pressure: graded infusions, healthy rabbits
Description: FIG. 11 is a graph of the mean BP at baseline and after increasing doses of Ang II alone, Ang IV alone, saline, and Ang II in rabbits pretreated with amastatin. Error bars represent SEM.
(§1) We have also undertaken a series of experiments designed to identify the specific form of angiotensin that is responsible for the increased plasma PAI-1 levels seen in our human studies. We examined the effects of graded infusions of Ang II and Ang IV on blood pressure and plasma PAI activity in healthy New Zealand White rabbits.

PAI-1 [2] = assay: Plasma PAI-1 during graded infusions in rabbits; format: in vivo, New Zealand White rabbits; settings: for effect on plasma PAI-1 levels: graded infusions, healthy rabbits
Description: FIG. 12 is a graph of the mean plasma PAI-1 activity at baseline and after increasing doses of Ang II alone, Ang IV alone, saline, and Ang II in rabbits pretreated with amastatin. Error bars represent SEM.
as §1

PAI-1 mRNA = PAI-1 mRNA induction in bovine aortic endothelial cells (Northern / slot blot); format: cell-based; settings: for effect on Ang II stimulation of PAI-1 mRNA levels: antagonist 1 μM
Protocol: FIG. 7 is a Northern blot showing the induction of PAI-1 RNA after treatment of bovine aortic endothelial cells with angiotensin II.
FIG. 8 is a graph showing the dose response of PAI-1 RNA induction by Ang II.
FIG. 9 is a Northern blot showing the time course of induction of PAI-1 RNA after treatment of bovine aortic endothelial cells with 20 nM angiotensin II.
FIG. 10 is a graph showing the PAI-1 mRNA levels as a function of time, in bovine aortic endothelial cells treated with 20 nM angiotensin II.
(§2) The increases in PAI-1 activity and antigen observed thus far have been associated with an approximate 4-fold increase in PAI-1 message (FIGS. 7 and 8). The cells for these experiments were incubated for 8 hour in fresh serum-free media containing the indicated concentrations of Ang II. Total RNA was extracted and analyzed by Northern blotting.
Ang II is also associated with a time-dependent increase in PAI-1 mRNA that peaks 6-8 hrs after exposure to Ang II, as assessed by Northern blot analysis (FIG. 9). Confluent cultures of bovine aortic endothelial cells were incubated with 20 nM Ang II in serum-free DMEM. Total cytoplasmic RNA was extracted at the indicated times and analyzed by Northern blotting (FIG. 9). The results corresponding to the 3.3-kb PAI-1 mRNA species were quantified by transmission densitometry. To control for variability in gel loading, the blots were stripped and rehybridized with a cDNA probe for β-actin. Normalized data are plotted in the FIG. 10.

PAI-1 [3] = assay: PAI-1 secretion into conditioned media of bovine aortic endothelial cells (ELISA; activity); format: cell-based
Protocol: FIG. 6 is a dose response curve of PAI-1 secretion into the conditioned media of bovine aortic endothelial cells following exposure to Ang II.
In these experiments, we investigated the effects of Ang II on the secretion of PAI-1 into the media of cultured endothelial cells. […] Ang II (in the concentrations indicated) was added to washed, confluent cultures of bovine aortic endothelial cells, and the conditioned media was removed for assay after 18 hour. Levels of PAI-1 antigen in the media were determined using a specific ELISA for PAI-1, such as the assay described in DeClerk et al., Blood (1988) 71:220-225, or the assay sold by Biopool, AB, Umea, Sweden.
as §2

t-PA [4] = assay: t-PA antigen or activity in conditioned media of bovine aortic endothelial cells; format: cell-based
PAI-1 [5] = assay: Plasma PAI-1 during Ang II infusion in human volunteers; format: in vivo
Protocol: (§3) Second, this binding appears to have a functional effect on bovine aortic endothelial cells in inducing the synthesis of PAI-1 message and the secretion of PAI-1 into the conditioned media. Importantly, we have observed increased levels of PAI-1 mRNA induced by physiologically relevant doses of Ang II (i.e. 0.1 nM). The potential significance of these in vitro findings are supported by recent data obtained during the infusion of Ang II into healthy human volunteers. In these studies, normotensive volunteers (N=4) received an infusion of Ang II in graded doses of 1.0, 3.0. and 10.0 ng/kg/min., while 4 additional normotensive volunteers received an infusion of D5W. Plasma levels of t-PA and PAI-1 were measured prior to and at the conclusion of each dose. […] Similar findings have been obtained in an additional group of hypertensive volunteers (N=6) that received a constant infusion of Ang II (3 ng/kg/min) over a 45 min period. In these individuals, we observed a 60% increase in plasma PAI-1 compared with pretreatment levels (p<0.04).

t-PA [6] = assay: Plasma t-PA during Ang II infusion in human volunteers; format: in vivo
Protocol: as §3

AT1 receptor = settings: well established property of the AT1 receptor; cited from earlier work
[7] = tested on: bovine aortic endothelial cells receptor for Ang II; assay: Binding of ^125 I-Ang II to cultured bovine aortic endothelial cells
Description: We first studied the role of angiotensin (Ang) II in the regulation of endothelial fibrinolysis, by determining if Ang II binds to the target cell, which in this case was bovine aortic endothelial cells. In these experiments, we used early passage bovine aortic endothelial cells (P2-4) grown to confluence in DMEM supplemented with penicillin, streptomycin, and 10% newborn calf serum.
To test whether the Ang II receptor on the bovine aortic endothelial cells is similar or identical to the classic AT1 receptor, we measured the potency of the antagonist saralasin for binding.

[8] = Ang II after pretreatment with amastatin

Compound: CC[C@H](C)[C@H](NC(=O)[C@H](Cc1ccc(O)cc1)NC(=O)[C@@H](N)C(C)C)C(=O)N[C@@H](Cc1cnc[nH]1)C(=O)N1CCC[C@H]1C(=O)N[C@@H](Cc1ccccc1)C(=O)O [Ang IV, VAL-TYR-ILE-HIS-PRO-PHE]
- effect on mean blood pressure [1]: stable mean BP
- effect on plasma PAI-1 levels (PAI-1 [2]): dose-dependent increase in plasma PAI-1 levels

Compound: CCCCc1nc(Cl)c(CO)n1Cc1ccc(-c2ccccc2-c2nn[nH]n2)cc1 [Dup 753]
- effect on Ang II stimulation of PAI-1 mRNA levels (PAI-1 mRNA): does not appear to be prevented

Compound: CC[C@H](C)[C@H](NC(=O)[C@H](Cc1ccc(O)cc1)NC(=O)[C@@H](NC(=O)[C@H](CCCNC(=N)N)NC(=O)[C@@H](N)CC(=O)O)C(C)C)C(=O)N[C@@H](Cc1cnc[nH]1)C(=O)N1CCC[C@H]1C(=O)N[C@@H](Cc1ccccc1)C(=O)O [Ang II, angiotensin II]
- effect on secretion of PAI-1 into media (PAI-1 [3]; 18 hour exposure, PAI-1 antigen ELISA): induce the secretion of PAI-1 in a dose-dependent manner
- EC50 (PAI-1 [3]; PAI-1 antigen in conditioned media, 18 hour): ~20 nM
- changes in PAI-1 activity (PAI-1 [3]; after reactivation of latent protein with guanidine hydrochloride): corresponding changes in PAI-1 activity
- concentration at which increased levels of PAI-1 mRNA were observed (PAI-1 mRNA): 0.1 nM
- time of peak PAI-1 mRNA after exposure (PAI-1 mRNA; 20 nM Ang II, serum-free DMEM): 6 to 8 h
- increase in PAI-1 message (PAI-1 mRNA; 8 hour, serum-free media, normalized to β-actin): ~4 fold
- effect on t-PA antigen or activity in conditioned media (t-PA [4]): not observed a similar increase in t-PA antigen or activity
- effect on PAI-1 secretion/response in normotensive volunteers (PAI-1 [5]; graded infusion 1.0, 3.0 and 10.0 ng/kg/min): increased in the subjects that received the Ang II infusions in a dose-dependent manner
- increase in plasma PAI-1 compared with pretreatment (PAI-1 [5]; hypertensive volunteers (N=6), 3 ng/kg/min over 45 min, p<0.04): 60%
- plasma PAI-1 level (PAI-1 [5]; normotensive volunteers (N=4), infusion graded 1.0, 3.0 and 10.0 ng/kg/min, from 14.7±5.3, mean±SEM, p<0.001 by ANOVA): 33.5±10.6
- plasma t-PA levels (t-PA [6]): plasma t-PA levels do not increase
- effect on mean blood pressure [1]: dose-dependent increase in mean blood pressure
- effect on plasma PAI-1 levels (PAI-1 [2]): dose-dependent increase in plasma PAI-1 levels

Compound: CC(C)C[C@@H](N)[C@H](O)C(=O)N[C@H](C(=O)N[C@H](C(=O)N[C@@H](CC(=O)O)C(=O)O)C(C)C)C(C)C [amastatin]
- effect on mean blood pressure, Ang II after amastatin pretreatment [1, 8]: expected increases in blood pressure
- PAI-1 response, Ang II after amastatin pretreatment (PAI-1 [2]; [8]): PAI-1 response was reduced considerably

Compound: CNCC(=O)N[C@@H](CCCN=C(N)N)C(=O)N[C@H](C(=O)N[C@@H](Cc1ccc(O)cc1)C(=O)N[C@H](C(=O)N[C@@H](Cc1cnc[nH]1)C(=O)N1CCC[C@H]1C(=O)N[C@@H](C)C(=O)O)C(C)C)C(C)C [saralasin, (Sar^1,Val^5,Ala^8)-angiotensin]
- effect on Ang II stimulation of PAI-1 mRNA levels (PAI-1 mRNA): does not appear to be prevented
- Ki (AT1 receptor): 0.4 nM

Compound: ^125 I-Ang II: ^125 I labelled Ang II
- character of binding to bovine aortic endothelial cells ([7]; FIG. 2): saturable and specific manner
- Kd ([7]; Scatchard transformation of specific binding, room temperature, read-out: apparent Kd): ~2 nM
- Bmax ([7]; Scatchard transformation, room temperature): 105 fmol/10^6 cells
- time to binding equilibrium ([7]; room temperature): ≤ 45 min

Compound: O[C@H](CS)[C@H](O)CS (relative stereo) [DTT]
- reduction in total binding ([7]; 5 mM DTT, ^125 I-Ang II (0.27 nM)): 50%
